Patent US10266537B2, “3-acetylenyl-pyrazole-pyrimidine derivative, and preparation method therefor and uses thereof” (Si Chuan University, priority 2015, dated 2019)

Assays:
FGFR2 = FGFR2 (Homo sapiens (Human), UniProt P21802); experiment: Kinase inhibition assay (KinaseProfiler, 33P-ATP); assay type: biochemical
EGFR(T790M) = EGFR(T790M) (Homo sapiens (Human), UniProt P00533, T790M); experiment: Kinase inhibition assay (KinaseProfiler, 33P-ATP); assay type: biochemical; conditions: EGFR(T790M)(h), read-out: The percentage of the remaining active protein
Ret = Ret (Homo sapiens (Human), UniProt P07949); experiment: Kinase inhibition assay (KinaseProfiler, 33P-ATP); assay type: biochemical
EphA7 = EphA7 (Homo sapiens (Human), UniProt Q15375); experiment: Kinase inhibition assay (KinaseProfiler, 33P-ATP); assay type: biochemical; conditions: EphA7(h), read-out: The percentage of the remaining active protein
PDGFRα (V561D) = PDGFRα (V561D) (Homo sapiens (Human), UniProt P16234, V561D); experiment: Kinase inhibition assay (KinaseProfiler, 33P-ATP); assay type: biochemical; conditions: PDGFRα(V561D)(h), read-out: The percentage of the remaining active protein
TrkB = TrkB (Homo sapiens (Human), UniProt Q16620); experiment: Kinase inhibition assay (KinaseProfiler, 33P-ATP); assay type: biochemical; conditions: TrkB(h), read-out: The percentage of the remaining active protein
ZR-75-1 = experiment: Cell proliferation inhibition assay (MTT); assay type: cell-based; conditions: Homo sapiens, 72 hours, read-out: Proliferation inhibitory activity IC50
Protocol: The cells were seeded in 96-well plates with 200 μL of cell suspension per well and incubated overnight in a cell culture medium with a cell concentration of 1 2×10^4 cells/mL. The next day, the supernatant was discarded (the suspension cell was centrifuged before it) and the cells were treated with gradient concentrations of the test compound, respectively. […] After 72 hours, add 20 μL of MTT reagent at a concentration of 5 mg/mL per well. After incubation for 2-4 h, the supernatant was discarded and 150 μL of DMSO was added to each well. […] Relative cell proliferation inhibition rate=([MUT]-[MUT])×100%/[MUT]. The experiment was repeated at least 3 times. Experimental data were expressed as mean, data statistics using t test, P<0.05 for the difference was statistically significant.

Abl (M351T)(h) = Abl (M351T)(h) (Homo sapiens (Human), UniProt P00519, M351T); experiment: Kinase inhibition assay (KinaseProfiler, 33P-ATP); assay type: biochemical; conditions: read-out: The percentage of the remaining active protein
Aurora-B(h) = Aurora-B(h) (Homo sapiens (Human), UniProt Q96GD4); experiment: Kinase inhibition assay (KinaseProfiler, 33P-ATP); assay type: biochemical; conditions: read-out: The percentage of the remaining active protein
CaMKIIδ(h) = CaMKIIδ(h) (Homo sapiens (Human), UniProt Q13557); experiment: Kinase inhibition assay (KinaseProfiler, 33P-ATP); assay type: biochemical; conditions: read-out: The percentage of the remaining active protein
CaMKK2(h) = CaMKK2(h) (Homo sapiens (Human), UniProt Q96RR4); experiment: Kinase inhibition assay (KinaseProfiler, 33P-ATP); assay type: biochemical; conditions: read-out: The percentage of the remaining active protein
CDK2/cyclinA(h) = CDK2/cyclinA(h) (Homo sapiens (Human), UniProt P24941); experiment: Kinase inhibition assay (KinaseProfiler, 33P-ATP); assay type: biochemical; conditions: read-out: The percentage of the remaining active protein
CHK2(R145W)(h) = CHK2(R145W)(h) (Homo sapiens (Human), UniProt O96017, R145W); experiment: Kinase inhibition assay (KinaseProfiler, 33P-ATP); assay type: biochemical; conditions: read-out: The percentage of the remaining active protein
CK2(h) = CK2(h) (Homo sapiens (Human), UniProt P68400); experiment: Kinase inhibition assay (KinaseProfiler, 33P-ATP); assay type: biochemical; conditions: read-out: The percentage of the remaining active protein
CLK1(h) = CLK1(h) (Homo sapiens (Human), UniProt P49759); experiment: Kinase inhibition assay (KinaseProfiler, 33P-ATP); assay type: biochemical; conditions: read-out: The percentage of the remaining active protein
DCAMKL3(h) = DCAMKL3(h) (Homo sapiens (Human), UniProt Q9C098); experiment: Kinase inhibition assay (KinaseProfiler, 33P-ATP); assay type: biochemical; conditions: read-out: The percentage of the remaining active protein
GCK(h) = GCK(h) (Homo sapiens (Human), UniProt Q12851); experiment: Kinase inhibition assay (KinaseProfiler, 33P-ATP); assay type: biochemical; conditions: read-out: The percentage of the remaining active protein
HIPK3(h) = HIPK3(h) (Homo sapiens (Human), UniProt Q9H422); experiment: Kinase inhibition assay (KinaseProfiler, 33P-ATP); assay type: biochemical; conditions: read-out: The percentage of the remaining active protein
IR(h), activated = IR(h), activated (Homo sapiens (Human), UniProt P06213); experiment: Kinase inhibition assay (KinaseProfiler, 33P-ATP); assay type: biochemical; conditions: read-out: The percentage of the remaining active protein
NEK2(h) = NEK2(h) (Homo sapiens (Human), UniProt P51955); experiment: Kinase inhibition assay (KinaseProfiler, 33P-ATP); assay type: biochemical; conditions: read-out: The percentage of the remaining active protein
PAK4(h) = PAK4(h) (Homo sapiens (Human), UniProt O96013); experiment: Kinase inhibition assay (KinaseProfiler, 33P-ATP); assay type: biochemical; conditions: read-out: The percentage of the remaining active protein
PKCβI(h) = PKCβI(h) (Homo sapiens (Human), UniProt P05771); experiment: Kinase inhibition assay (KinaseProfiler, 33P-ATP); assay type: biochemical; conditions: read-out: The percentage of the remaining active protein
Syk(h) = Syk(h) (Homo sapiens (Human), UniProt P43405); experiment: Kinase inhibition assay (KinaseProfiler, 33P-ATP); assay type: biochemical; conditions: read-out: The percentage of the remaining active protein
Tie2(R849W)(h) = Tie2(R849W)(h) (Homo sapiens (Human), UniProt Q02763, R849W); experiment: Kinase inhibition assay (KinaseProfiler, 33P-ATP); assay type: biochemical; conditions: read-out: The percentage of the remaining active protein
DNA-PK(h) = DNA-PK(h) (Homo sapiens (Human), UniProt P78527); experiment: Kinase inhibition assay (KinaseProfiler, 33P-ATP); assay type: biochemical; conditions: read-out: The percentage of the remaining active protein
PTK5 = PTK5 (Homo sapiens (Human), UniProt P42685); experiment: Kinase inhibition assay (KinaseProfiler, 33P-ATP); conditions: read-out: The percentage of the remaining active protein

Ret, sequence (P07949 29-1114): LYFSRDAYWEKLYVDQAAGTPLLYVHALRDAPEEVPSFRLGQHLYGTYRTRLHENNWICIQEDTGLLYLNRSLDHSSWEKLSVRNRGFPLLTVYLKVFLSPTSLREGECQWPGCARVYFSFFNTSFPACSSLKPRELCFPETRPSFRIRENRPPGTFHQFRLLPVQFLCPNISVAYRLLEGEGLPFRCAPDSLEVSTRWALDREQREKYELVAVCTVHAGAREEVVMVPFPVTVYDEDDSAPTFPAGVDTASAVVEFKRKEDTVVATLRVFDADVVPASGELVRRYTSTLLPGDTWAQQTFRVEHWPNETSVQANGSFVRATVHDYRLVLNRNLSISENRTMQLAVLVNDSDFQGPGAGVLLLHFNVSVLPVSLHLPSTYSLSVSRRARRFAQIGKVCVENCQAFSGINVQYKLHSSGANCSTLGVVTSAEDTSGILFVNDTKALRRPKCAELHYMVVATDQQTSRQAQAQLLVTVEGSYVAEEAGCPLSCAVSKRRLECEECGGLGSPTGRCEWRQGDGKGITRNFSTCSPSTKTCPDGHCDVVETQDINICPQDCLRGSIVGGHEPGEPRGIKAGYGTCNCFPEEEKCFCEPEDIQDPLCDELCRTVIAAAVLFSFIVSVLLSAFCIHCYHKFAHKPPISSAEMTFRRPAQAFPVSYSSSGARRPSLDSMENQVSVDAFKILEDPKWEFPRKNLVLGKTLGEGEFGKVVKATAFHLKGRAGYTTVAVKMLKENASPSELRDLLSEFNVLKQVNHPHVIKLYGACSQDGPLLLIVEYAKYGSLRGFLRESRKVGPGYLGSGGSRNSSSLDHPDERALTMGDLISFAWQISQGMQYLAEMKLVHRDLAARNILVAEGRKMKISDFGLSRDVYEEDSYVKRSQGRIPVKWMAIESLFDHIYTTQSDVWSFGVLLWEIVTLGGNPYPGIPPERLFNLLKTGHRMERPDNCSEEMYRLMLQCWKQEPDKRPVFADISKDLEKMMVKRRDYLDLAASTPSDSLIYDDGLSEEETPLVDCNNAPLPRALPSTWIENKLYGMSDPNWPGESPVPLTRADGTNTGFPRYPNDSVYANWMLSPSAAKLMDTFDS
FGFR2, sequence (P21802 22-821): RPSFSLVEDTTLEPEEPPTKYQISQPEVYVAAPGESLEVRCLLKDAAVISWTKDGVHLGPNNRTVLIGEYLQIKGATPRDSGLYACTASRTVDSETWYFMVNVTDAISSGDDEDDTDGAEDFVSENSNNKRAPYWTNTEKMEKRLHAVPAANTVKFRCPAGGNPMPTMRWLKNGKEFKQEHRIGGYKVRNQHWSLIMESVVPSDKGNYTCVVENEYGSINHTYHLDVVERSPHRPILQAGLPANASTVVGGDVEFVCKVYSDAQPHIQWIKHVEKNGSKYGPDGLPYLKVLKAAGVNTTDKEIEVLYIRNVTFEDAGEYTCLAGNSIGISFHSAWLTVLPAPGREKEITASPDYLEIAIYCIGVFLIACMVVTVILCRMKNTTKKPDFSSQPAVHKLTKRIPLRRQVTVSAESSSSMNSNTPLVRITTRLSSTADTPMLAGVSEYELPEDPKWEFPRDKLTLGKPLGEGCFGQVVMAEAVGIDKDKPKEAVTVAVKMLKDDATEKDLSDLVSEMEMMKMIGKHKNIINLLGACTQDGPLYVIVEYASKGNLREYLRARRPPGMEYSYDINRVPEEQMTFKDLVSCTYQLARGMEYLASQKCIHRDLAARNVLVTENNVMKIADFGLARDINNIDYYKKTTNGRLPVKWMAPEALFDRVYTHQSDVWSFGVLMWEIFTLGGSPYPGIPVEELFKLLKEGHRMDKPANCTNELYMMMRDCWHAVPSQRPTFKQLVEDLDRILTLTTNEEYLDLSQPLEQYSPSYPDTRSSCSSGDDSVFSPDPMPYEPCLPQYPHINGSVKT
PDGFRα (V561D), sequence (P16234 24-1089 V561D): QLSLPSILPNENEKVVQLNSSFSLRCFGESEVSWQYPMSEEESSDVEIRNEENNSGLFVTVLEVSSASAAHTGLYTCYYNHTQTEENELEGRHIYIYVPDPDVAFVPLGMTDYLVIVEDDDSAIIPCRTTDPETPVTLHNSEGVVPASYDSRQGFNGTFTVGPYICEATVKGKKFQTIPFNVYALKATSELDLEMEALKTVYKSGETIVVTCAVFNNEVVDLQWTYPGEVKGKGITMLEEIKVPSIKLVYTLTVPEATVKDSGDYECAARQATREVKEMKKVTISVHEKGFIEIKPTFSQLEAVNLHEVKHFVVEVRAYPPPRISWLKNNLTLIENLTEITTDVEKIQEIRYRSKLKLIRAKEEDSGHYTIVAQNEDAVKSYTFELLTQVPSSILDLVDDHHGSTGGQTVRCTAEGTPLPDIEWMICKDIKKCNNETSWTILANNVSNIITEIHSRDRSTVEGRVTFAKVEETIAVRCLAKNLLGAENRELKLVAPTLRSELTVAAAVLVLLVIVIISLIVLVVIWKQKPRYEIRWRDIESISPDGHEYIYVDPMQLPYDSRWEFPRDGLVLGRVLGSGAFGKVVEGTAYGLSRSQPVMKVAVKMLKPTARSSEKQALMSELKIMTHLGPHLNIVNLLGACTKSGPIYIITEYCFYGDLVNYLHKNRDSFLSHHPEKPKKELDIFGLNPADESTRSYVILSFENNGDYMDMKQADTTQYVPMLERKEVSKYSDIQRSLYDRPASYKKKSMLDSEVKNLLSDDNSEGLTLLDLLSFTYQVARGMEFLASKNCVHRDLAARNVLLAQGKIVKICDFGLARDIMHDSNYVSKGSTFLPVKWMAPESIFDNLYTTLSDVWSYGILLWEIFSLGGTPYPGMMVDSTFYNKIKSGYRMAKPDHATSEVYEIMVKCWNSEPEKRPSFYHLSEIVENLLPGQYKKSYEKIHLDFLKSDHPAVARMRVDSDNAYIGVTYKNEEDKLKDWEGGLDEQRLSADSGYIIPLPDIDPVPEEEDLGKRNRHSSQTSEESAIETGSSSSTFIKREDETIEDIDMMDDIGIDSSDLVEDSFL
Tie2(R849W)(h), sequence (Q02763 23-1124 R849W): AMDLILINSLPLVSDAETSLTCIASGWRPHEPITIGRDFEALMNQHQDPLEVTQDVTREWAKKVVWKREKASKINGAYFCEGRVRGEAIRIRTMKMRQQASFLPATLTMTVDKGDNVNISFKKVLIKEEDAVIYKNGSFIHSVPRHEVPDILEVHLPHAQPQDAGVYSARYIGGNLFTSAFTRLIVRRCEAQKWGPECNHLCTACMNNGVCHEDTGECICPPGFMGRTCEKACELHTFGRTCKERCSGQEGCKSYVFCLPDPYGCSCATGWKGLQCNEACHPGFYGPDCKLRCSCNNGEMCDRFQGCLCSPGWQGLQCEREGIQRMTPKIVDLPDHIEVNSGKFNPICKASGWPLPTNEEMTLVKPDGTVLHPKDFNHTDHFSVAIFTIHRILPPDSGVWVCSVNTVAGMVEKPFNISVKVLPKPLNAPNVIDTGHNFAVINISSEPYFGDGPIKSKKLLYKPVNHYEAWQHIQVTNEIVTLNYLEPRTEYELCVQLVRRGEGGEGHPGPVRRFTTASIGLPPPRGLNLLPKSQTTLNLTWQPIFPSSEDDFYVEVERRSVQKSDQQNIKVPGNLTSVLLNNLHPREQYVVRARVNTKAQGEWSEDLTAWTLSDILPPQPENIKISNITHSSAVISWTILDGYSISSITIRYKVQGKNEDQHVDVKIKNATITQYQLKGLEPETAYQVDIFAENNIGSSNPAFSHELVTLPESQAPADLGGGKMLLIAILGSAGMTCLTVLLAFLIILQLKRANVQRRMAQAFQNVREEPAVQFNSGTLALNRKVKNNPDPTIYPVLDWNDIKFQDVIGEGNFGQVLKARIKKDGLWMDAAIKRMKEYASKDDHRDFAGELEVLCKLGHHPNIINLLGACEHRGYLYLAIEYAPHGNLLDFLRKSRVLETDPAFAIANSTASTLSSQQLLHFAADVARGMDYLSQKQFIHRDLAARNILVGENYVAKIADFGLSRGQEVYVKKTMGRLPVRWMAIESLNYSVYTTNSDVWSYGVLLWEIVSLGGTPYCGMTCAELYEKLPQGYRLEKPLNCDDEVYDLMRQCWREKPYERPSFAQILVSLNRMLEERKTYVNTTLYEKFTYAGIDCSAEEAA
CK2(h), sequence (P68400 whole entry): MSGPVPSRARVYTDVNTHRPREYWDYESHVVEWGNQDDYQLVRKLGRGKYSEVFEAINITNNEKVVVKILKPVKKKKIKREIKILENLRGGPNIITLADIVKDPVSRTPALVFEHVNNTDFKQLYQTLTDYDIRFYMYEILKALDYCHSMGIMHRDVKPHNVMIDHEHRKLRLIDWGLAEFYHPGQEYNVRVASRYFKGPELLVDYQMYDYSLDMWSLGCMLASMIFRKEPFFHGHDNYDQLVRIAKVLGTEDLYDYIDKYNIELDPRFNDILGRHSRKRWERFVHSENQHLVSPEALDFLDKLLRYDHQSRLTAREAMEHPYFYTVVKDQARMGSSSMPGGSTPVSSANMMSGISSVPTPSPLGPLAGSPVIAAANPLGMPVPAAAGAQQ
CK2(h), sequence (P67870 whole entry partner): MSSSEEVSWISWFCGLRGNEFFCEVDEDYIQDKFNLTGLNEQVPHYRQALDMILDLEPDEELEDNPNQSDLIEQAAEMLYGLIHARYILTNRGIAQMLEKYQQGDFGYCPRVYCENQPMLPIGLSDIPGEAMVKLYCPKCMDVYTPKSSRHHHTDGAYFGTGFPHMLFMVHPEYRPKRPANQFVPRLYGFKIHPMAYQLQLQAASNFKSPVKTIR
IR(h), activated, sequence (P06213 1005-1310 limits assumed): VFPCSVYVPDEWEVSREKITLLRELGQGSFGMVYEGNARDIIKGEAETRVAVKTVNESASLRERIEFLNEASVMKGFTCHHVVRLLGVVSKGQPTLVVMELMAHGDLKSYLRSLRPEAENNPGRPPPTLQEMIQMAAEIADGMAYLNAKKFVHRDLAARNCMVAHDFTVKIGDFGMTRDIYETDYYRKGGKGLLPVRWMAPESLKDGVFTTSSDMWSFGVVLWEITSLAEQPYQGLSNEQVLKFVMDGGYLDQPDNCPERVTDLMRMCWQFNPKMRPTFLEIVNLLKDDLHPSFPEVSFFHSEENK

Work on Cc1ccc(NC(=O)c2ccc(C)c(C(F)(F)F)c2)cc1C#Cc1nn([C@H]2CC[C@H](O)CC2)c2ncnc(N)c12 [Compound 93] yielded a remaining activity at 10 µM (FGFR2; FGFR2(h), 10 μM, read-out: The percentage of the remaining active protein) of 0%, an IC50 (FGFR2; FGFR2, ATP at Km) of 40 nM and a remaining activity at 10 µM (EGFR(T790M)) of 4%. It also gave a remaining activity at 10 µM (Ret; Ret(h), 10 μM, read-out: The percentage of the remaining active protein) of 2%, an IC50 (Ret; Ret, ATP at Km) of 4 nM and a remaining activity at 10 µM (EphA7) of 0%. For the same compound, the remaining activity at 10 µM (PDGFRα (V561D)) was 0%, the remaining activity at 10 µM (TrkB) was 4% and the IC50 (ZR-75-1) was roughly 10000 nM. It also gave a remaining activity at 10 µM (Abl (M351T)(h)) of 0%, a remaining activity at 10 µM (Aurora-B(h)) of 475% and a remaining activity at 10 µM (CaMKIIδ(h)) of 89%. For the same compound, the remaining activity at 10 µM (CaMKK2(h)) was 55%, the remaining activity at 10 µM (CDK2/cyclinA(h)) was 100% and the remaining activity at 10 µM (CHK2(R145W)(h)) was 102%. It also gave a remaining activity at 10 µM (CK2(h)) of 105%, a remaining activity at 10 µM (CLK1(h)) of 64% and a remaining activity at 10 µM (DCAMKL3(h)) of 101%. The remaining activity at 10 µM (GCK(h)) was 49%, the remaining activity at 10 µM (HIPK3(h)) was 81% and the remaining activity at 10 µM (IR(h), activated) was 89%. It also gave a remaining activity at 10 µM (NEK2(h)) of 117%, a remaining activity at 10 µM (PAK4(h)) of 88% and a remaining activity at 10 µM (PKCβI(h)) of 100%. For the same compound, the remaining activity at 10 µM (Syk(h)) was 95%, the remaining activity at 10 µM (Tie2(R849W)(h)) was 0% and the remaining activity at 10 µM (DNA-PK(h)) was 94%. For the same compound, the remaining activity at 10 µM (PTK5) was 1%.
